Measured values taken from ChEMBL document CHEMBL5029141, “Three-Dimensional Proteome-Wide Scale Screening for the 5-Alpha Reductase Inhibitor Finasteride: Identification of a Novel Off-Target” (J Med Chem, 2021).
Calls of active or inactive are those of the source. No cut-off for these calls is given here.

Key:
[1] = target: T1, Phenylethanolamine N-methyltransferase (Homo sapiens) (UniProt P11086); assay: Inhibition of human recombinant PNMT using AdoMet and DL-norepinephrine hydrocloride as substrate preincubated for 30 mins followed by substrate addition and measured after 30 mins by fluorescence based analysis relative to control; details: time 1.0 hrs
T1 sequence (whole entry): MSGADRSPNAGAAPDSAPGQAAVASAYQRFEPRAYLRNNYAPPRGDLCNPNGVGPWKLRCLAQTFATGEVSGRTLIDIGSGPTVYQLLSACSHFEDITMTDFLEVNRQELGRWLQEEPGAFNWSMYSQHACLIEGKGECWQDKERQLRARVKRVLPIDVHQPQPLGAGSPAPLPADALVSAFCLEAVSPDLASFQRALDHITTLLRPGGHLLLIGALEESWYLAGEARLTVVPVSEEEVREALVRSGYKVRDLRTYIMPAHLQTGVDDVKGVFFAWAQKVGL

[2] = system: Rattus norvegicus; assay: Effect on PNMT protein expression level in Sprague-Dawley rat at 1 mg, sc once daily treated for 20 days and measured after 24 hrs post last dose by western blot analysis; format: functional, organism-based; details: time 20.0 day
[3] = system: Rattus norvegicus; assay: In vivo inhibition of PNMT in Sprague-Dawley rat assessed as decrease in epinephrine level in adrenal gland at 1 mg, sc once daily treated for 20 days and measured after 24 hrs post last dose by liquid chromatography tandem mass spectrometry analysis; format: functional, organism-based; details: time 20.0 day
[4] = system: Rattus norvegicus; assay: In vivo inhibition of PNMT in Sprague-Dawley rat assessed as increase in norepinephrine level in adrenal gland at 1 mg, sc administered once daily for 20 days and measured after 24 hrs post last dose by liquid chromatography tandem mass spectrometry analysis; format: functional, organism-based; details: time 20.0 day

Row | SMILES | inhibition [1] | Activity [2] | Activity [3] | Activity [4]
1 | CC(N)c1cccc(Cl)c1Cl (stereo not given) | 60% |  |  | 
2 | CC(C)(C)NC(=O)[C@H]1CC[C@H]2[C@@H]3CC[C@H]4NC(=O)C=C[C@]4(C)[C@H]3CC[C@]12C | > 30% | inactive | Active | Active
